# From patent US20250186405A1, “Compound For Use In Treating Narcolepsy” (Alkermes, Inc., priority 2023, published 2025)
# Tested on: subjects with idiopathic hypersomnia (IH)
# Assay: Part 6 POC IH: treatment-emergent adverse events, single doses, crossover
# Details: N = 8
# Protocol: Part 6 consisted of a 4-way, 4-period crossover study design in approximately 8 subjects (2 subjects per sequence; minimum of 4 subjects with 1 subject per sequence). […] Treatments were administered under fasted state.
# Subjects were randomized to 1 of 4 sequences. […] No food was given for at least 3 hours after dose administration (i.e., fast can be broken after the 3-hour PK time point is collected). Water was allowed ad libitum except for 1 hour before and 1 hour after study drug administration. Safety assessments including AEs, safety ECGs, vital signs, and clinical laboratory tests were conducted, and plasma PK samples were collected.
# Adverse events (AEs) and serious adverse events (SAEs) were monitored continuously until the completion of the study.
# Eight subjects with IH were dosed in Part 6 (POC in IH) in a randomized 4-sequence 4-period cross-over design.
compound,measurement,setting,value
"CS(=O)(=O)N[C@H]1CCCN2C(=O)COc3ccccc3C3CCC(CC3)OCC12 (stereo partly drawn) [Compound A, N-[(4S,4aR,7α,10α)-1,2,3,4,4a,5,7,8,9,10,16,17-dodecahydro-17-oxo-7,10-ethanopyrido[1,2-d][1,7,4]benzodioxaazacyclotridecin-4-yl]methanesulfonamide]",AE Leading to Study Drug Discontinuation,5 mg single dose,0 n (%)
same,Any SAEs,5 mg single dose,0 n (%)
same,Any TEAE,5 mg single dose,6 (75.0) n (%)
same,Death,5 mg single dose,0 n (%)
same,Drug Related TEAE by Preferred Term: Cold sweat,5 mg single dose,0 n (%)
same,Drug Related TEAE by Preferred Term: Dizziness,5 mg single dose,0 n (%)
same,Drug Related TEAE by Preferred Term: Dysuria,5 mg single dose,0 n (%)
same,Drug Related TEAE by Preferred Term: Feeling jittery,5 mg single dose,0 n (%)
same,Drug Related TEAE by Preferred Term: Insomnia,5 mg single dose,0 n (%)
same,Drug Related TEAE by Preferred Term: Micturition urgency,5 mg single dose,1 (12.5) n (%)
same,Drug Related TEAE by Preferred Term: Middle insomnia,5 mg single dose,1 (12.5) n (%)
same,Drug Related TEAE by Preferred Term: Palpitations,5 mg single dose,0 n (%)
same,Drug Related TEAE by Preferred Term: Pollakiuria,5 mg single dose,2 (25.0) n (%)
same,Drug Related TEAE by Preferred Term: Supraventricular extrasystoles,5 mg single dose,0 n (%)
same,Drug Related TEAE by Preferred Term: Tachycardia,5 mg single dose,0 n (%)
same,Drug Related TEAE by Preferred Term: Visual impairment,5 mg single dose,0 n (%)
same,Subjects with at least one TEAE,5 mg single dose,6 (75.0) n (%)
same,Subjects with at least one treatment-related TEAE,5 mg single dose,2 (25.0) n (%)
same,TEAE by Highest Relationship: Not Related,5 mg single dose,4 (50.0) n (%)
same,TEAE by Highest Relationship: Related,5 mg single dose,2 (25.0) n (%)
same,TEAE by Highest Severity: Mild,5 mg single dose,6 (75.0) n (%)
same,TEAE by Highest Severity: Moderate,5 mg single dose,0 n (%)
same,TEAE by Highest Severity: Severe,5 mg single dose,0 n (%)
same,TEAE by Preferred Term: Blood creatine phosphokinase increased,5 mg single dose,0 n (%)
same,TEAE by Preferred Term: Blood creatinine increased,5 mg single dose,0 n (%)
same,TEAE by Preferred Term: Cold sweat,5 mg single dose,0 n (%)
same,TEAE by Preferred Term: Dermatitis contact,5 mg single dose,0 n (%)
same,TEAE by Preferred Term: Dizziness,5 mg single dose,2 (25.0) n (%)
same,TEAE by Preferred Term: Dysuria,5 mg single dose,0 n (%)
same,TEAE by Preferred Term: Epistaxis,5 mg single dose,0 n (%)
same,TEAE by Preferred Term: Feeling jittery,5 mg single dose,0 n (%)
same,TEAE by Preferred Term: Headache,5 mg single dose,1 (12.5) n (%)
same,TEAE by Preferred Term: Insomnia,5 mg single dose,0 n (%)
same,TEAE by Preferred Term: Micturition urgency,5 mg single dose,1 (12.5) n (%)
same,TEAE by Preferred Term: Middle insomnia,5 mg single dose,1 (12.5) n (%)
same,TEAE by Preferred Term: Nausea,5 mg single dose,1 (12.5) n (%)
same,TEAE by Preferred Term: Neck pain,5 mg single dose,1 (12.5) n (%)
same,TEAE by Preferred Term: Palpitations,5 mg single dose,0 n (%)
same,TEAE by Preferred Term: Phlebitis,5 mg single dose,0 n (%)
same,TEAE by Preferred Term: Pollakiuria,5 mg single dose,2 (25.0) n (%)
same,TEAE by Preferred Term: Presyncope,5 mg single dose,0 n (%)
same,TEAE by Preferred Term: Skin irritation,5 mg single dose,1 (12.5) n (%)
same,TEAE by Preferred Term: Steatorrhoea,5 mg single dose,0 n (%)
same,TEAE by Preferred Term: Supraventricular extrasystoles,5 mg single dose,0 n (%)
same,TEAE by Preferred Term: Tachycardia,5 mg single dose,0 n (%)
same,TEAE by Preferred Term: Urinary tract infection,5 mg single dose,1 (12.5) n (%)
same,TEAE by Preferred Term: Vessel puncture site bruise,5 mg single dose,2 (25.0) n (%)
same,TEAE by Preferred Term: Vessel puncture site pain,5 mg single dose,0 n (%)
same,TEAE by Preferred Term: Visual impairment,5 mg single dose,0 n (%)
same,TEAE by Preferred Term: Vomiting,5 mg single dose,0 n (%)
same,AE Leading to Study Drug Discontinuation,12 mg single dose,0 n (%)
same,Any SAEs,12 mg single dose,0 n (%)
same,Any TEAE,12 mg single dose,5 (62.5) n (%)
same,Death,12 mg single dose,0 n (%)
same,Drug Related TEAE by Preferred Term: Cold sweat,12 mg single dose,0 n (%)
same,Drug Related TEAE by Preferred Term: Dizziness,12 mg single dose,0 n (%)
same,Drug Related TEAE by Preferred Term: Dysuria,12 mg single dose,1 (12.5) n (%)
same,Drug Related TEAE by Preferred Term: Feeling jittery,12 mg single dose,0 n (%)
same,Drug Related TEAE by Preferred Term: Insomnia,12 mg single dose,0 n (%)
same,Drug Related TEAE by Preferred Term: Micturition urgency,12 mg single dose,0 n (%)
same,Drug Related TEAE by Preferred Term: Middle insomnia,12 mg single dose,1 (12.5) n (%)
same,Drug Related TEAE by Preferred Term: Palpitations,12 mg single dose,0 n (%)
same,Drug Related TEAE by Preferred Term: Pollakiuria,12 mg single dose,2 (25.0) n (%)
same,Drug Related TEAE by Preferred Term: Supraventricular extrasystoles,12 mg single dose,0 n (%)
same,Drug Related TEAE by Preferred Term: Tachycardia,12 mg single dose,0 n (%)
same,Drug Related TEAE by Preferred Term: Visual impairment,12 mg single dose,0 n (%)
same,Subjects with at least one TEAE,12 mg single dose,5 (62.5) n (%)
same,Subjects with at least one treatment-related TEAE,12 mg single dose,3 (37.5) n (%)
same,TEAE by Highest Relationship: Not Related,12 mg single dose,2 (25.0) n (%)
same,TEAE by Highest Relationship: Related,12 mg single dose,3 (37.5) n (%)
same,TEAE by Highest Severity: Mild,12 mg single dose,5 (62.5) n (%)
same,TEAE by Highest Severity: Moderate,12 mg single dose,0 n (%)
same,TEAE by Highest Severity: Severe,12 mg single dose,0 n (%)
same,TEAE by Preferred Term: Blood creatine phosphokinase increased,12 mg single dose,1 (12.5) n (%)
same,TEAE by Preferred Term: Blood creatinine increased,12 mg single dose,1 (12.5) n (%)
same,TEAE by Preferred Term: Cold sweat,12 mg single dose,0 n (%)
same,TEAE by Preferred Term: Dermatitis contact,12 mg single dose,0 n (%)
same,TEAE by Preferred Term: Dizziness,12 mg single dose,0 n (%)
same,TEAE by Preferred Term: Dysuria,12 mg single dose,1 (12.5) n (%)
same,TEAE by Preferred Term: Epistaxis,12 mg single dose,0 n (%)
same,TEAE by Preferred Term: Feeling jittery,12 mg single dose,0 n (%)
same,TEAE by Preferred Term: Headache,12 mg single dose,1 (12.5) n (%)
same,TEAE by Preferred Term: Insomnia,12 mg single dose,0 n (%)
same,TEAE by Preferred Term: Micturition urgency,12 mg single dose,0 n (%)
same,TEAE by Preferred Term: Middle insomnia,12 mg single dose,1 (12.5) n (%)
same,TEAE by Preferred Term: Nausea,12 mg single dose,1 (12.5) n (%)
same,TEAE by Preferred Term: Neck pain,12 mg single dose,0 n (%)
same,TEAE by Preferred Term: Palpitations,12 mg single dose,0 n (%)
same,TEAE by Preferred Term: Phlebitis,12 mg single dose,1 (12.5) n (%)
same,TEAE by Preferred Term: Pollakiuria,12 mg single dose,2 (25.0) n (%)
same,TEAE by Preferred Term: Presyncope,12 mg single dose,1 (12.5) n (%)
same,TEAE by Preferred Term: Skin irritation,12 mg single dose,0 n (%)
same,TEAE by Preferred Term: Steatorrhoea,12 mg single dose,1 (12.5) n (%)
same,TEAE by Preferred Term: Supraventricular extrasystoles,12 mg single dose,0 n (%)
same,TEAE by Preferred Term: Tachycardia,12 mg single dose,0 n (%)
same,TEAE by Preferred Term: Urinary tract infection,12 mg single dose,0 n (%)
same,TEAE by Preferred Term: Vessel puncture site bruise,12 mg single dose,0 n (%)
same,TEAE by Preferred Term: Vessel puncture site pain,12 mg single dose,0 n (%)
same,TEAE by Preferred Term: Visual impairment,12 mg single dose,0 n (%)
same,TEAE by Preferred Term: Vomiting,12 mg single dose,0 n (%)
same,AE Leading to Study Drug Discontinuation,25 mg single dose,0 n (%)
